Patent US20040235932A1, “Ophthalmic pharmaceutical compositions” (priority 2001, published 2004)
“Also recorded” adds a separate entry of the source.

What was measured:
[1] = test system: Dutch male colored rabbits; test: Activity to reduce intraocular pressure on continuous eye drop administration in rabbits; type: in vivo, rabbit; conditions: for Difference in intraocular pressure after the administration: test eye vs control eye, mean±S.E.; for time of maximum reduction in intraocular pressure after the administration: all determination days to the 57th day
Procedure: KRG-3332 as prepared in Reference Example 2 was dissolved in physiological saline to prepare a 0.01% solution, which was used as test solution 1 (0.01% eye drop) in the following method for determining the activity to reduce intraocular pressure. […] For the administration of eye drop, each 50 ρL of the test solution and the control (physiological saline) was administered to one eye and the other eye respectively, twice a day (11:00 and 19:00), and the administration continued for up to 57 days. The corneal surfaces of the animals were anaesthetized with 0.4% oxybuprocaine hydrochloride eye drop to, and the intraocular pressure was determined at time points of 11:00 (before the administration), 13:00(2 hours after the administration), 15:00 (4 hours after the administration) and 19:00 (8 hours after the administration, immediately before the second administration) one day before the administration and thereafter every week using an air applanation ophthalmotonometer (ALCON JAPAN LTD.). Average (mean±S.E.) of the difference between the intraocular pressures of eyes administered with the test solution and the control as determined at each time point, and the relevant t-test results were estimated. KRG-3332 was dissolved in physiological saline to prepare a 0.1% solution, which was used as test solution 2 (0.1% eye drop) in the determination of the activity to reduce intraocular pressure in a similar manner to above (1). For the comparison, bunazosin hydrochloride was dissolved in physiological saline to prepare a 0.03% solution, which was used as test solution 3 (reference drug, 0.03% eye drop of bunazosin hydrochloride) in the determination of the activity to reduce intraocular pressure in a similar manner to above (1) and (2).

[2] = test system: patients suffering from primary closed angle glaucoma and ocular hypertension; conditions: 0.05% eye drop, continuous administration; cited from earlier work
human variant α1 A-AR = target: T1, human variant α1 A-AR (Homo sapiens, UniProt P35348, A271T); test: Effects on expression level of α1 A-AR in CHO cells expressing variant α1 A-AR ([3H]-prazosin binding to membrane fractions); conditions: CHO cells expressing variant α1 A-AR cultured 48 hours with test drug 10^−8 M (mixture: each 10^−8 M)
T1 sequence (P35348 1-466 A271T): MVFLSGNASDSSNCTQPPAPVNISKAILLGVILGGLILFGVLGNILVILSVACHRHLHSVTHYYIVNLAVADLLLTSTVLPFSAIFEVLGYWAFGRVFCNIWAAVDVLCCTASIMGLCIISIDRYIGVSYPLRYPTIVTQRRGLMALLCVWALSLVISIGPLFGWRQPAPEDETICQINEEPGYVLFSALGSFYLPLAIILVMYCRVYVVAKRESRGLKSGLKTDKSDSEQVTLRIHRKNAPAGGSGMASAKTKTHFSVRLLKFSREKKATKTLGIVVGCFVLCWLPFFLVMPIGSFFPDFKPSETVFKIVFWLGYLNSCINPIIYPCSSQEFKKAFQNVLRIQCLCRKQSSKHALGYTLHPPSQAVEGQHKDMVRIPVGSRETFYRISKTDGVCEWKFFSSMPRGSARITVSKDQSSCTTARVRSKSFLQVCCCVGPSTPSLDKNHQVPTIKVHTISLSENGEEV
Procedure: The wild or variant α1 A-AR gene was incorporated into mammalian expression vector pCR3 (Invitrogen Inc.) using restriction enzyme EcoRI, and the vector was transfected into CHO cells with Lipofectamin (GIBCO Inc.).
The membrane fractions (about 20 μg protein/tube) were incubated in the presence of [^3 H]-prazosin (NEN Inc.) (30 to 200 μM) at 30° C. for 45 minutes, and then harvested on GF/C filter (Whatman Inc.) using a cell collecting apparatus (m-36T, Brandel Inc.). The filter was washed with 50 mM Tris-HCl buffer (pH7.4) several times, and then the radioactivity bound on the membrane was determined using a liquid scintillation counter. […] The experimental data was analyzed using nonlinear approximate program PRISM (trade mark) (Graphpad Software Inc.) to calculate the expression level of the receptor.

[3] = test system: patients suffering from ocular hypertension; conditions: cited from earlier work

CCOc1ccccc1OCCN[C@H](C)Cc1cc(C(N)=O)c2c(ccn2CCCOC(=O)C(C)(C)C)c1.Cl [KRG-3332, (R)-3-[7-carbamoyl-5-[2-[[2-(2-ethoxyphenoxy)ethyl]amino]propyl]-1H-indol-1-yl]propyl pivalate hydrochloride]
development of drug resistance (change in activity to reduce intraocular pressure by continuous administration) ([1]; 0.01% and 0.1% eye drops twice a day for up to 57 days): no development of drug resistance | Difference in intraocular pressure after the administration ([1]; 0.01% eye drop, 1st day, 0 hours after the administration): 0.050 ± 0.398 mmHg | Difference in intraocular pressure after the administration ([1]; 0.01% eye drop, 1st day, 8 hours after the administration): −0.400 ± 0.392 mmHg | Difference in intraocular pressure after the administration ([1]; 0.01% eye drop, 8th day, 0 hours after the administration): −0.200 ± 0.242 mmHg | Difference in intraocular pressure after the administration ([1]; 0.01% eye drop, 15th day, 4 hours after the administration): −1.600 ± 0.882 mmHg | Difference in intraocular pressure after the administration ([1]; 0.01% eye drop, 15th day, 8 hours after the administration): −0.350 ± 0.828 mmHg | Difference in intraocular pressure after the administration ([1]; 0.01% eye drop, 22nd day, 0 hours after the administration): −0.850 ± 0.589 mmHg | Difference in intraocular pressure after the administration ([1]; 0.01% eye drop, 22nd day, 8 hours after the administration): −0.550 ± 0.348 mmHg | Difference in intraocular pressure after the administration ([1]; 0.01% eye drop, 29th day, 8 hours after the administration): −0.400 ± 0.392 mmHg | Difference in intraocular pressure after the administration ([1]; 0.01% eye drop, 36th day, 0 hours after the administration): −0.500 ± 0.447 mmHg | Difference in intraocular pressure after the administration ([1]; 0.01% eye drop, 36th day, 4 hours after the administration): −1.349 ± 0.831 mmHg | Difference in intraocular pressure after the administration ([1]; 0.01% eye drop, 36th day, 8 hours after the administration): −1.250 ± 0.818 mmHg | Difference in intraocular pressure after the administration ([1]; 0.01% eye drop, 43rd day, 0 hours after the administration): −0.150 ± 0.491 mmHg | Difference in intraocular pressure after the administration ([1]; 0.01% eye drop, 43rd day, 8 hours after the administration): 0.100 ± 0.376 mmHg | Difference in intraocular pressure after the administration ([1]; 0.01% eye drop, 50th day, 0 hours after the administration): −0.400 ± 0.430 mmHg | Difference in intraocular pressure after the administration ([1]; 0.01% eye drop, 50th day, 8 hours after the administration): −0.900 ± 0.551 mmHg | Difference in intraocular pressure after the administration ([1]; 0.01% eye drop, 57th day, 0 hours after the administration): 0.050 ± 0.366 mmHg | Difference in intraocular pressure after the administration ([1]; 0.01% eye drop, 57th day, 8 hours after the administration): −0.150 ± 0.400 mmHg | time of maximum reduction in intraocular pressure after the administration ([1]; 0.01% eye drop): 2 h | Difference in intraocular pressure after the administration ([1]; 0.1% eye drop, 1st day, 0 hours after the administration): 0.000 ± 0.285 mmHg | Difference in intraocular pressure after the administration ([1]; 0.1% eye drop, 8th day, 0 hours after the administration): −1.050 ± 0.619 mmHg | Difference in intraocular pressure after the administration ([1]; 0.1% eye drop, 15th day, 0 hours after the administration): −1.350 ± 0.944 mmHg | Difference in intraocular pressure after the administration ([1]; 0.1% eye drop, 15th day, 8 hours after the administration): −1.700 ± 0.917 mmHg | Difference in intraocular pressure after the administration ([1]; 0.1% eye drop, 36th day, 0 hours after the administration): −1.050 ± 0.878 mmHg | Difference in intraocular pressure after the administration ([1]; 0.1% eye drop, 43rd day, 8 hours after the administration): −2.250 ± 0.862 mmHg | Difference in intraocular pressure after the administration ([1]; 0.1% eye drop, 50th day, 0 hours after the administration): −0.600 ± 0.801 mmHg | Difference in intraocular pressure after the administration ([1]; 0.1% eye drop, 50th day, 4 hours after the administration): −1.950 ± 0.756 mmHg | Difference in intraocular pressure after the administration ([1]; 0.1% eye drop, 50th day, 8 hours after the administration): −1.150 ± 0.573 mmHg | Difference in intraocular pressure after the administration ([1]; 0.1% eye drop, 57th day, 0 hours after the administration): −1.500 ± 0.822 mmHg | time of maximum reduction in intraocular pressure after the administration ([1]; 0.1% eye drop): 2 h

CCCC(=O)N1CCCN(c2nc(N)c3cc(OC)c(OC)cc3n2)CC1.Cl [bunazosin hydrochloride, 1-(4-amino-6,7-dimethoxy-2-quinazolinyl)-4-butyrylhexahydro-1H-1,4-diazepin hydrochloride, reference compound]
development of drug resistance (change in activity to reduce intraocular pressure by continuous administration) ([1]; 0.03% eye drop twice a day, up to 29th day, hydrochloride): any difference from the eyes administered with the control was hardly observed on the 22nd day; also recorded: any reduction in intraocular pressure was hardly observed on the 22nd day | Difference in intraocular pressure after the administration ([1]; 0.03% eye drop, 1st day, 0 hours after the administration): 0.700 ± 0.320 mmHg | Difference in intraocular pressure after the administration ([1]; 0.03% eye drop, 1st day, 4 hours after the administration): −1.700 ± 1.452 mmHg | Difference in intraocular pressure after the administration ([1]; 0.03% eye drop, 1st day, 8 hours after the administration): 0.150 ± 0.947 mmHg | Difference in intraocular pressure after the administration ([1]; 0.03% eye drop, 8th day, 0 hours after the administration): 0.600 ± 0.579 mmHg | Difference in intraocular pressure after the administration ([1]; 0.03% eye drop, 8th day, 4 hours after the administration): −0.950 ± 1.176 mmHg | Difference in intraocular pressure after the administration ([1]; 0.03% eye drop, 8th day, 8 hours after the administration): −0.350 ± 0.430 mmHg | Difference in intraocular pressure after the administration ([1]; 0.03% eye drop, 15th day, 0 hours after the administration): 0.100 ± 0.562 mmHg | Difference in intraocular pressure after the administration ([1]; 0.03% eye drop, 15th day, 2 hours after the administration): −1.450 ± 0.804 mmHg | Difference in intraocular pressure after the administration ([1]; 0.03% eye drop, 15th day, 4 hours after the administration): −0.250 ± 0.494 mmHg | Difference in intraocular pressure after the administration ([1]; 0.03% eye drop, 15th day, 8 hours after the administration): −0.100 ± 0.150 mmHg | Difference in intraocular pressure after the administration ([1]; 0.03% eye drop, 22nd day, 0 hours after the administration): −0.050 ± 0.567 mmHg | Difference in intraocular pressure after the administration ([1]; 0.03% eye drop, 22nd day, 2 hours after the administration): −0.250 ± 0.576 mmHg | Difference in intraocular pressure after the administration ([1]; 0.03% eye drop, 22nd day, 4 hours after the administration): −0.200 ± 0.330 mmHg | Difference in intraocular pressure after the administration ([1]; 0.03% eye drop, 22nd day, 8 hours after the administration): 0.350 ± 0.150 mmHg | Difference in intraocular pressure after the administration ([1]; 0.03% eye drop, 29th day, 0 hours after the administration): 0.300 ± 1.011 mmHg | Difference in intraocular pressure after the administration ([1]; 0.03% eye drop, 29th day, 2 hours after the administration): −0.250 ± 0.652 mmHg | Difference in intraocular pressure after the administration ([1]; 0.03% eye drop, 29th day, 4 hours after the administration): −0.500 ± 0.306 mmHg | Difference in intraocular pressure after the administration ([1]; 0.03% eye drop, 29th day, 8 hours after the administration): −0.200 ± 0.289 mmHg | attenuation in activity to reduce intraocular pressure [2]: initiate the attenuation in an activity to reduce intraocular pressure after 4-weeks continuous administration | expression level of the α1 A-AR (receptor levels) (human variant α1 A-AR): induced the increase in the receptor levels about three times compared to the treatment with KRG-3333

COC(=O)[C@H]1[C@H]2C[C@H]3c4[nH]c5ccccc5c4CCN3C[C@@H]2CC[C@@H]1O [corynanthine, methyl 17α-hydroxyyohimban-16β-carboxylate]
activity for reducing intraocular pressure ([3]; concentrations of 2 to 5% in eye drops): demonstrated Lo have an activity for reducing intraocular pressure | development of drug resistance ([3]; continued administration for a week): the continued administration thereof for a week developed drug resistance
